USRE47689E1, “Compounds for treating spinal muscular atrophy” (PTC Therapeutics, Inc., priority 2011, dated 2019)

How the values were obtained:
[1] = tested on: SMN2 minigene (full length SMN2 minigene mRNA containing SMN2 exon 7); assay: SMN2 minigene mRNA splicing RT-qPCR assay in cultured cells; assay type: cell-based, human; details: Homo sapiens, HEK293-H; HEK293H cells stably transfected with SMN2-A minigene; 24 hours; 7-point concentration curve; 1.5-fold relative to vehicle-treated cells; read-out: EC1.5x for production of full length SMN2 mRNA
Summary of the method: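 Read-out: full-length (exon 7-included) SMN2 minigene mRNA by multiplex RT-qPCR with GAPDH, efficiency-corrected (1+E)^−Ct, GAPDH-normalized and divided by vehicle. Stably transfected HEK293H cells, 24 h compound exposure, duplicates per concentration. Value is EC1.5x, reported as star ranges.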

Smn protein = Smn protein assay in cultured cells (SMN HTRF); assay type: cell-based, human; details: 48 hours; for maximum fold (Fold) increase of Smn protein: SMA patient fibroblast cells, 7-point concentration data, fold increase relative to vehicle control (SMN HTRF); for EC1.5x (concentration giving 1.5-fold Smn protein increase): SMA Type 1 patient fibroblast cells (GM03813), 7-point concentration curve, SMN HTRF, concentration producing 1.5 times Smn protein vs DMSO vehicle control, read-out: EC1.5x for Smn protein expression
Summary of the method: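 Lysates in RIPA with protease inhibitors are incubated overnight at room temperature with HTRF anti-SMN antibodies. EC1.5x is derived from fold increase in ΔF over vehicle.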

Compound	melting point	EC (1.5-fold) [1] [µM]	maximum fold (Fold) increase of Smn protein (Smn protein)	EC1.5x (concentration giving 1.5-fold Smn protein increase) (Smn protein) [nM]
C[C@@H]1CN(c2ccc3cc(-c4cn5cc(F)cnc5n4)c(=O)oc3c2)C[C@H](C)N1 [Compound 491, 7-[(3R,5S)-3,5-dimethylpiperazin-1-yl]-3-(6-fluoroimidazo[1,2-a]pyrimidin-2-yl)-2H-chromen-2-one]	275 to 281 °C	1 to 3	** (fold increase between >1.2 and ≤1.35)	
Cc1cc(F)cn2cc(-c3cc4ccc(N5CCNCC5)cc4oc3=O)nc12 [Compound 328, 3-(6-fluoro-8-methylimidazo[1,2-a]pyridin-2-yl)-7-(piperazin-1-yl)-2H-chromen-2-one]	223 to 230 °C	0.3 to 1	* (maximum fold increase of ≤1.2)	
Cc1cn2cc(-c3cc4ccc(CCN(C)C)cc4oc3=O)nc2c(C)n1 [Compound 864, 7-[2-(dimethylamino)ethyl]-3-(6,8-dimethylimidazo[1,2-a]pyrazin-2-yl)-2H-chromen-2-one]	219 to 223 °C	< 0.1	***** (fold increase >1.65)	< 300
CCCN1CCN(c2ccc3cc(-c4cn5cccc(Cl)c5n4)c(=O)oc3c2)CC1 [Compound 119, 3-(8-chloroimidazo[1,2-a]pyridin-2-yl)-7-(4-propylpiperazin-1-yl)-2H-chromen-2-one]	245 to 247 °C	0.3 to 1	** (fold increase between >1.2 and ≤1.35)	
Cc1cn2cc(-c3cc4ccc(OCCNC(C)(C)CO)cc4oc3=O)nc2c(C)n1 [Compound 955, 3-(6,8-dimethylimidazo[1,2-a]pyrazin-2-yl)-7-{2-[(1-hydroxy-2-methylpropan-2-yl)amino]ethoxy}-2H-chromen-2-one]	187 to 191 °C	0.1 to 0.3	*** (fold increase between >1.35 and ≤1.5)	
Cn1cc2cc(-c3cc4ccc(C5CCNCC5)cc4oc3=O)ccc2n1 [Compound 856, 3-(2-methyl-2H-indazol-5-yl)-7-(piperidin-4-yl)-2H-chromen-2-one]	232 to 238 °C	< 0.1	***** (fold increase >1.65)	< 300
Cc1cn2cc(-c3cc4ccc(N5C[C@@H]6C[C@H]5CN6C)cc4oc3=O)nc2c(C)n1 [Compound 696, 3-(6,8-dimethylimidazo[1,2-a]pyrazin-2-yl)-7-[(1S,4S)-5-methyl-2,5-diazabicyclo[2.2.1]hept-2-yl]-2H-chromen-2-one]	219 to 226 °C	< 0.1	***** (fold increase >1.65)	< 300
O=c1oc2cc(N3CCNCC3)ccc2cc1-c1nc2ccccc2[nH]1 [Compound 313, 3-(1H-benzimidazol-2-yl)-7-(piperazin-1-yl)-2H-chromen-2-one]	254 to 258 °C	0.3 to 1	* (maximum fold increase of ≤1.2)	
Cc1ccc2nc(-c3cc4ccc(N5CCC(N)CC5)cc4oc3=O)cn2c1 [Compound 219, 7-(4-aminopiperidin-1-yl)-3-(6-methylimidazo[1,2-a]pyridin-2-yl)-2H-chromen-2-one]	250 to 252 °C	3 to 30	* (maximum fold increase of ≤1.2)	

Further lines, with some results ahead:

melting point	Compound	EC (1.5-fold) [1] [µM]	maximum fold (Fold) increase of Smn protein (Smn protein)	EC1.5x (concentration giving 1.5-fold Smn protein increase) (Smn protein) [nM]
192 to 195 °C	Cc1cn2cc(-c3cc4ccc(N5CCC(N(C)C)CC5)cc4oc3=O)cc2c(C)n1 [Compound 715, 7-[4-(dimethylamino)piperidin-1-yl]-3-(1,3-dimethylpyrrolo[1,2-a]pyrazin-7-yl)-2H-chromen-2-one]	< 0.1	** (fold increase between >1.2 and ≤1.35)	
260 °C (dec.)	Cc1ccc2nc(-c3cc4ccc(N5CCN(C(C)C)CC5)cc4oc3=O)cn2c1 [Compound 82, 3-(6-methylimidazo[1,2-a]pyridin-2-yl)-7-[4-(propan-2-yl)piperazin-1-yl]-2H-chromen-2-one]	1 to 3	** (fold increase between >1.2 and ≤1.35)	
230 to 234 °C	Cc1cn2cc(-c3cc4ccc(N5CC[C@H](N(C)C)C5)cc4oc3=O)ccc2n1 [Compound 717, 7-[(3S)-3-(dimethylamino)pyrrolidin-1-yl]-3-(2-methylimidazo[1,2-a]pyridin-6-yl)-2H-chromen-2-one]	0.3 to 1	*** (fold increase between >1.35 and ≤1.5)	
148 to 150 °C	Cc1cn2cc(-c3cc4ccc(N5CCCN(C)CC5)cc4oc3=O)cc2cn1 [Compound 589, 7-(4-methyl-1,4-diazepan-1-yl)-3-(3-methylpyrrolo[1,2-a]pyrazin-7-yl)-2H-chromen-2-one]	< 0.1	***** (fold increase >1.65)	< 300
295 to 297 °C	Cc1cn2cc(-c3cc4ccc(N5CCN6CCC[C@H]6C5)cc4oc3=O)cnc2n1 [Compound 649, 7-[(8aS)-hexahydropyrrolo[1,2-a]pyrazin-2(1H)-yl]-3-(2-methylimidazo[1,2-a]pyrimidin-6-yl)-2H-chromen-2-one]	0.1 to 0.3	***** (fold increase >1.65)	300 to 1000
221 to 222 °C	Cc1nccn2cc(-c3cc4ccc(N5CCN(C)CC5)cc4oc3=O)nc12 [Compound 551, 3-(8-methylimidazo[1,2-a]pyrazin-2-yl)-7-(4-methylpiperazin-1-yl)-2H-chromen-2-one]	0.3 to 1	*** (fold increase between >1.35 and ≤1.5)	< 300
261 to 263 °C	Cc1cn2cc(-c3cc4ccc(N5CCN6CCC[C@H]6C5)cc4oc3=O)nc2c(C)n1 [Compound 634, 3-(6,8-dimethylimidazo[1,2-a]pyrazin-2-yl)-7-[(8aS)-hexahydropyrrolo[1,2-a]pyrazin-2(1H)-yl]-2H-chromen-2-one]	< 0.1	***** (fold increase >1.65)	< 300
224 to 227 °C	Cc1cn2cc(-c3cc4ccc(N5CCC(N(C)C)CC5)cc4oc3=O)cc2cn1 [Compound 716, 7-[4-(dimethylamino)piperidin-1-yl]-3-(3-methylpyrrolo[1,2-a]pyrazin-7-yl)-2H-chromen-2-one]	< 0.1	**** (fold increase between >1.5 and ≤1.65)	1000 to 3000
158 to 160 °C	Cc1ccc(-c2cc3ccc(N4CCN(C)CC4)cc3oc2=O)cn1 [Compound 164, 7-(4-methylpiperazin-1-yl)-3-(6-methylpyridin-3-yl)-2H-chromen-2-one]	1 to 3	* (maximum fold increase of ≤1.2)	
